Assay results reported in US7713966B2, “Heterobicyclic metalloprotease inhibitors” (Alantos Pharmaceuticals Holding, Inc., priority 2006, dated 2010).

Legend:
[1] = molecular target: T1, catalytic domain of MMP-13 enzyme (Homo sapiens, UniProt P45452); assay: Assay for determining MMP-13 inhibition (fluorescent substrate); type: biochemical; details: read-out: MMP-13 Activity (IC50 MMP-13), Group
T1 construct: catalytic domain of MMP-13 enzyme (produced by Alantos or commercially available from Invitek (Berlin), Cat. # 30100812); purchased Invitek (Berlin) 30100812
Description: The typical assay for MMP-13 activity is carried out in assay buffer comprised of 50 mM Tris, pH 7.5, 150 mM NaCl, 5 mM CaCl2 and 0.05% Brij-35. Different concentrations of tested compounds are prepared in assay buffer in 50 μL aliquots. 10 μL of a 50 nM stock solution of catalytic domain of MMP-13 enzyme (produced by Alantos or commercially available from Invitek (Berlin), Cat. # 30100812) is added to the compound solution. The mixture of enzyme and compound in assay buffer is thoroughly mixed and incubated for 10 min at room temperature. Upon the completion of incubation, the assay is started by addition of 40 μl of a 12.5 μM stock solution of MMP-13 fluorescent substrate (Calbiochem, Cat. No. 444235). The time-dependent increase in fluorescence is measured at the 320 nm excitation and 390 nm emission by automatic plate multireader. The IC50 values are calculated from the initial reaction rates.

[2] = molecular target: T2, activated MMP-8 enzyme (Homo sapiens, UniProt P22894); assay: Assay for determining MMP-8 inhibition (OmniMMP fluorescent substrate); type: biochemical; details: read-out: MMP-8 Activity (IC50 MMP-8), Group
T2 construct: purchased Calbiochem 444229
T2 sequence (P22894 101-467): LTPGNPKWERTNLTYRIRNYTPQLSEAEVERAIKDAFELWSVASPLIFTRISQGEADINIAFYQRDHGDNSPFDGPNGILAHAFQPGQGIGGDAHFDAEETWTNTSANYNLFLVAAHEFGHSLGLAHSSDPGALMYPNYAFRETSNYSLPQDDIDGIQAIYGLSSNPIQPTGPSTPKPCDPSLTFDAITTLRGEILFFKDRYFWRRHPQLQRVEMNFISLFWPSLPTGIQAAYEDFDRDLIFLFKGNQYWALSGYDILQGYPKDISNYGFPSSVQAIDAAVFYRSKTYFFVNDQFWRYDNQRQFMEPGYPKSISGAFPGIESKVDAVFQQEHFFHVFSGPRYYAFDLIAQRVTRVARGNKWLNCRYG
Description: The typical assay for MMP-8 activity is carried out in assay buffer comprised of 50 mM Tris, pH 7.5, 150 mM NaCl, 5 mM CaCl2 and 0.05% Brij-35. Different concentrations of tested compounds are prepared in assay buffer in 50 μL aliquots. 10 μL of a 50 nM stock solution of activated MMP-8 enzyme (Calbiochem, Cat. No. 444229) is added to the compound solution. The mixture of enzyme and compound in assay buffer is thoroughly mixed and incubated for 10 min at 37° C. Upon the completion of incubation, the assay is started by addition of 40 μL of a 10 μM stock solution of OmniMMP fluorescent substrate (Biomol, Cat. No. P-126). The time-dependent increase in fluorescence is measured at the 320 nm excitation and 390 nm emission by an automatic plate multireader at 37° C. The IC50 values are calculated from the initial reaction rates.

| IC50 [1] [nM] | IC50 [2] [nM] | SMILES |
| --- | --- | --- |
| < 100 | – | CC(=O)OCc1sc2nc(C(=O)NCc3ccc4c(c3)N(C(C)=O)CCO4)[nH]c(=O)c2c1C [Example 24] |
| 100 to 20000 | – | O=C1COc2cc(CNC(=O)c3nc4ccccc4c(=O)[nH]3)ccc2N1 [2/205] |
| < 100 | < 250 | O=C(O)CCC(=O)NCc1ccc2nc(C(=O)NCc3ccc4c(c3)NC(=O)CO4)[nH]c(=O)c2c1 [Example 17] |
| 100 to 20000 | 250 to 20000 | O=C(NCc1ccc2c(c1)OC(F)(F)O2)c1nc2ccccc2c(=O)[nH]1 [2/6] |
| < 100 | – | Cc1nc2c(=O)[nH]c(C(=O)NCc3ccc4c(c3)NC(=O)CO4)nc2s1 [2/179] |
| < 100 | < 250 | Nc1ccc2nc(C(=O)NCc3ccc4c(c3)NC(=O)CO4)[nH]c(=O)c2c1 [Example 5] |
| – | < 250 | C[C@H](O)CNc1cccc2nc(C(=O)NCc3ccc4c(c3)NC(=O)CO4)[nH]c(=O)c12 [36/13] |
| – | < 250 | C[C@@H](Nc1cccc2nc(C(=O)NCc3ccc4c(c3)NC(=O)CO4)[nH]c(=O)c12)C(=O)OC(C)(C)C [36/6] |
| 100 to 20000 | – | O=C1COc2ccc(CNC(=O)c3nc4ccc(C(=O)Nc5ccccc5)cc4c(=O)[nH]3)cc2N1 [31/1] |
| < 100 | – | O=C1COc2ccc(CNC(=O)c3nc4cccc(C(F)(F)F)c4c(=O)[nH]3)cc2N1 [39/1] |
| 100 to 20000 | – | COc1cccc2c(=O)[nH]c(C(=O)NCc3ccc4c(c3)NC(=O)CO4)nc12 [39/21] |
| < 100 | < 250 | C[C@@H](Nc1cccc2nc(C(=O)NCc3ccc4c(c3)NC(=O)CO4)[nH]c(=O)c12)c1ccccc1 [36/2] |
| < 100 | – | Cn1ncc2c(=O)[nH]c(C(=O)NCc3ccc4c(c3)NC(=O)CO4)nc21 [2/111] |
| 100 to 20000 | – | CC(=O)N1CCOc2ccc(CNC(=O)c3nc4sc(CO)c(C)c4c(=O)[nH]3)cc21 [Example 25] |
| < 100 | < 250 | CCc1ccc2nc(C(=O)NCc3ccc4c(c3)NC(=O)CO4)[nH]c(=O)c2c1 [2/70] |
| < 100 | 250 to 20000 | O=C(NCc1ccc2c(c1)CCO2)c1nc2ccccc2c(=O)[nH]1 [2/7] |
| 100 to 20000 | – | Cc1sc2nc(C(=O)NCc3ccc4c(c3)NC(=O)CO4)[nH]c(=O)c2c1C(=O)O [4/1] |
| < 100 | < 250 | O=C1COc2ccc(CNC(=O)c3nc4ccc(CNC(=O)C56C7C8C5C5C6C7C85C(=O)O)cc4c(=O)[nH]3)cc2N1 (centres unmarked) [4/3] |
| < 100 | – | O=C1COc2ccc(CNC(=O)c3nc4sccc4c(=O)[nH]3)cc2N1 [Example 1] |

| IC50 [1] [nM] | IC50 [2] [nM] | SMILES |
| --- | --- | --- |
| < 100 | < 250 | Cc1c(C(C)O)sc2nc(C(=O)NCc3ccc4c(c3)NC(=O)CO4)[nH]c(=O)c12 (centres unmarked) [Example 21] |
| < 100 | – | Cc1nc2c(=O)[nH]c(C(=O)NCc3ccc4c(c3)CN(c3c(N)c(=O)c3=O)CC4)nc2s1 [2/180] |
| < 100 | 250 to 20000 | CCOC(=O)c1sc2nc(C(=O)NCc3ccc4c(c3)NC(=O)CO4)[nH]c(=O)c2c1C [2/28] |
| < 100 | < 250 | C[C@@H](O)CNc1cccc2nc(C(=O)NCc3ccc4c(c3)NC(=O)CO4)[nH]c(=O)c12 [36/12] |
| < 100 | 250 to 20000 | O=C(NCc1ccc2c(c1)OCO2)c1nc2ccccc2c(=O)[nH]1 [Example 2/5] |
| 100 to 20000 | – | O=C1COc2ccc(CNC(=O)c3nc4nonc4c(=O)[nH]3)cc2N1 [39/3] |
| 100 to 20000 | – | O=C1COc2ccc(CNC(=O)c3nc4snnc4c(=O)[nH]3)cc2N1 [39/6] |
| 100 to 20000 | – | CCOC(=O)c1sc2nc(C(=O)NCc3ccc4c(c3)NCCO4)[nH]c(=O)c2c1C [Example 20b] |
| 100 to 20000 | – | Cn1c(C(=O)NCc2ccc3c(c2)NC(=O)CO3)nc2ccccc2c1=O [2/50] |
| 100 to 20000 | – | NC(=O)c1ccc2c(=O)[nH]c(C(=O)NCc3ccc4c(c3)NC(=O)CO4)nc2c1 [13/1] |
| < 100 | < 250 | Cc1c(CO)sc2nc(C(=O)NCc3ccc4c(c3)NCCO4)[nH]c(=O)c12 [Example 20c] |
| < 100 | – | Cc1csc(-c2csc3nc(C(=O)NCc4ccc5c(c4)NC(=O)CO5)[nH]c(=O)c23)n1 [2/379] |
| 100 to 20000 | – | CCOC(=O)Cc1c([N+](=O)[O-])sc2nc(C(=O)NCc3ccc4c(c3)CN(c3c(N)c(=O)c3=O)CC4)[nH]c(=O)c12 [2/164] |
| < 100 | – | O=C1COc2ccc(CNC(=O)c3nc4ccc(-c5nnn[nH]5)cc4c(=O)[nH]3)cc2N1 [Example 11] |
| < 100 | – | O=C1COc2ccc(CNC(=O)c3nc4scc(-c5ccc(-c6ccccc6)cc5)c4c(=O)[nH]3)cc2N1 [2/138] |
| < 100 | 250 to 20000 | Nc1c(N2CCc3ccc(CNC(=O)c4nc5cc(F)c(F)cc5c(=O)[nH]4)cc3C2)c(=O)c1=O [39/24] |
| < 100 | < 250 | CNC(=O)Cc1csc2nc(C(=O)NCc3ccc4c(c3)NC(=O)CO4)[nH]c(=O)c12 [2/157] |
| < 100 | – | NCc1ccc2nc(C(=O)NCc3ccc4c(c3)NC(=O)CO4)[nH]c(=O)c2c1 [Example 15] |
| < 100 | < 250 | C=Cc1ccc2nc(C(=O)NCc3ccc4c(c3)NC(=O)CO4)[nH]c(=O)c2c1 [2/69] |

| IC50 [1] [nM] | IC50 [2] [nM] | SMILES |
| --- | --- | --- |
| < 100 | < 250 | O=C1COc2ccc(CNC(=O)c3nc4cc([N+](=O)[O-])ccc4c(=O)[nH]3)cc2N1 [39/22] |
| 100 to 20000 | – | Cc1nsc2nc(C(=O)NCc3ccc4c(c3)NC(=O)CO4)[nH]c(=O)c12 [2/136] |
| < 100 | – | NC(=O)[C@@H]1CCCN1c1cccc2nc(C(=O)NCc3ccc4c(c3)NC(=O)CO4)[nH]c(=O)c12 [36/8] |
| < 100 | 250 to 20000 | CCOC(=O)c1c(C)sc2nc(C(=O)NCc3ccc4c(c3)NC(=O)CO4)[nH]c(=O)c12 [2/22] |
| < 100 | < 250 | CC(=NO)c1sc2nc(C(=O)NCc3ccc4c(c3)NC(=O)CO4)[nH]c(=O)c2c1C [Example 16] |
| – | 250 to 20000 | Cc1cccc2nc(C(=O)NCc3cccc(CNc4c(N)c(=O)c4=O)c3)[nH]c(=O)c12 [Example 2/15] |
| 100 to 20000 | – | Cc1c(C(=O)O)sc2nc(C(=O)NCc3ccc4c(c3)NC(=O)CO4)[nH]c(=O)c12 [4/2] |
| < 100 | – | Cc1c(CO)sc2nc(C(=O)NCc3ccc4c(c3)NC(=O)CO4)[nH]c(=O)c12 [Example 20a] |
| 100 to 20000 | – | Cc1noc2nc(C(=O)NCc3ccc4c(c3)NC(=O)CO4)[nH]c(=O)c12 [39/12] |
| < 100 | – | Cc1sc2nc(C(=O)NCc3cc(Br)c4c(c3)NC(=O)CO4)[nH]c(=O)c2c1C [2/281] |
| < 100 | – | O=C1COc2ccc(CNC(=O)c3nc4c(Br)cc(F)cc4c(=O)[nH]3)cc2N1 [39/23] |
| – | 250 to 20000 | Cc1cccc2nc(C(=O)NCc3ccc(F)c(CNc4c(N)c(=O)c4=O)c3)[nH]c(=O)c12 [2/17] |
| – | < 250 | NC(=O)Cc1csc2nc(C(=O)NCc3ccc4c(c3)NC(=O)CO4)[nH]c(=O)c12 [Example 2/156] |
| < 100 | – | O=C1COc2ccc(CNC(=O)c3nc4ccc(C#Cc5ccccc5)cc4c(=O)[nH]3)cc2N1 [Example 8/1] |
| 100 to 20000 | – | Cc1sc2nc(C(=O)NCc3ccc4c(c3)NS(=O)(=O)CO4)[nH]c(=O)c2c1C [Example 38] |
| 100 to 20000 | – | COc1cc2nc(C(=O)NCc3ccc4c(c3)NC(=O)CO4)[nH]c(=O)c2cc1OC [2/65] |
| – | < 250 | Cc1c(CCC(=O)O)sc2nc(C(=O)NCc3ccc4c(c3)NC(=O)CO4)[nH]c(=O)c12 [4/8] |
| < 100 | – | O=C1COc2ccc(CNC(=O)c3nc4ccc(C(=O)O)cc4c(=O)[nH]3)cc2N1 [Example 3] |
